Measured values reported in US7157455B2, “4-Aminopyrimidine-5-one derivatives” (Hoffmann-La Roche Inc., priority 2003, dated 2007).
Like-named read-outs stand apart in the source and are kept apart here.

Columns and labels:
human cyclin D1-CDK4 = human cyclin D1-CDK4 (Homo sapiens, UniProt P11802); assay: FlashPlate kinase assay, IC50 measurement, cyclin D1-CDK4; format: biochemical; settings: Rb protein substrate, 1 μM ATP
Experimental: (§1) To determine inhibition of Cdk4, Cdk2 and Cdk1 activity, kinase assays were conducted using FlashPlate™ assays (NEN™-Life Science Products). FlashPlate assays were performed using recombinant human cyclin B-CDK1, human cyclin E-CDK2 or human cyclin D1-CDK4 complexes. GST-cyclinE (GST-cycE), CDK2, GST-cyclinB (GST-cycB), CDK1, GST-CDK4 and cyclin D1 (cycD1) cDNA clones in baculovirus vectors were provided by Dr. W. Harper at the Baylor College of Medicine, Houston, Tex. Proteins were co-expressed in High Five™ insect cells and the complex was purified on glutathione Sepharose resin (Pharmacia, Piscataway, N.J.) as previously described (Harper, J. W. et al. Cell 1993, 75, 805–816). A 6×-Histidine tagged truncated form of retinoblastoma (Rb) protein (amino acid 386–928) was used as the substrate for the cycD1-CDK4, cycB-CDK1 and the cycE-CDK2 assays (the expression plasmid was provided by Dr. Veronica Sullivan, Department of Molecular Virology, Roche Research Centre, Welwyn Garden City, United Kingdom). The Rb protein is a natural substrate for phosphorylation by CDK4, CDK2 and CDK1 (see Herwig and Strauss Eur. J. Biochem. Vol. 246 (1997) pp. 581–601 and the references cited therein).
(§2) The expression of the 62 Kd protein was under the control of an IPTG inducible promoter in an M15 E. coli strain. Cells were lysed by sonication and purification was carried out by binding lysates at pH 8.0 to a Ni-chelated agarose column pretreated with 1 mM imidazole. The resin was then washed several times with incrementally decreasing pH buffers to pH 6.0, and eluted with 500 mM imidazole. Eluted protein was dialysed against 20 mM HEPES pH 7.5, 30% glycerol, 200 mM NaCl, and 1 mM DTT. Purified Rb fusion protein stocks were quantitated for protein concentration, aliquoted, and stored at −70° C.
(§3) For all three kinase assays reported herein, 96-well FlashPlates were coated with Rb protein at 10 μg/ml, using 100 μl per well. Plates were incubated at 4° C. overnight or at room temperature for 3 hours on a shaker. To control for nonspecific phosphorylation, one row of wells was coated with 100 μl/well coating buffer (20 mM HEPES, 0.2 M NaCl). Plates were then washed twice with wash buffer (0.01% Tween 20 in phosphate-buffered saline). Compounds to be tested (“test compounds”) were added to the wells at 5× final concentration. Reactions were initiated by immediate addition of 40 μl reaction mix (25 mM HEPES, 20 mM MgCl2, 0.002% Tween 20, 2 mM DTT, 1 μM ATP, 4 nM ^33P-ATP) and a sufficient amount of enzyme to give counts that were at least 10-fold above background. Plates were incubated at room temperature on a shaker for 30 minutes. Plates were washed four times with the wash buffer, sealed, and counted on the TopCount scintillation counter (Packard Instrument Co., Downers Grove, Ill. The percent inhibition of Rb phosphorylation, which is a measure of the inhibition of CDK activity, was determined according to the following formula:
(§4) [formula] where “test compound” refers to the average counts per minute of the test duplicates, “nonspecific” refers to the average counts per minute when no CyclinD/Cdk4, etc., was added, and “total” refers to the average counts per minute when no compound was added. The IC50 value is the concentration of test compound that reduces by 50% the protein-kinase induced incorporation of the radiolabel under the test conditions described. B: Ki Measurement

human cyclin B-CDK1 = human cyclin B-CDK1 (Homo sapiens, UniProt P06493); assay: FlashPlate kinase assay, IC50 measurement, cyclin B-CDK1; format: biochemical; settings: Rb protein substrate, 1 μM ATP
Sequence of human cyclin B-CDK1 (P06493 whole entry): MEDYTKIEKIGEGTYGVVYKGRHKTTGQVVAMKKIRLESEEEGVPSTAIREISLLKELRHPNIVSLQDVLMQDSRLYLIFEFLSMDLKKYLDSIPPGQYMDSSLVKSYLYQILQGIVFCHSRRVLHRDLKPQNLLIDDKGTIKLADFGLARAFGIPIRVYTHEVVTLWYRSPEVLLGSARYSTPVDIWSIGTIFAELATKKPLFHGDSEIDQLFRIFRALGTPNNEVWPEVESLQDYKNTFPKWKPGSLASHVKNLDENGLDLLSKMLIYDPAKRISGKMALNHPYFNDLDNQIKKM
Sequence of human cyclin B-CDK1 (P14635 whole entry partner): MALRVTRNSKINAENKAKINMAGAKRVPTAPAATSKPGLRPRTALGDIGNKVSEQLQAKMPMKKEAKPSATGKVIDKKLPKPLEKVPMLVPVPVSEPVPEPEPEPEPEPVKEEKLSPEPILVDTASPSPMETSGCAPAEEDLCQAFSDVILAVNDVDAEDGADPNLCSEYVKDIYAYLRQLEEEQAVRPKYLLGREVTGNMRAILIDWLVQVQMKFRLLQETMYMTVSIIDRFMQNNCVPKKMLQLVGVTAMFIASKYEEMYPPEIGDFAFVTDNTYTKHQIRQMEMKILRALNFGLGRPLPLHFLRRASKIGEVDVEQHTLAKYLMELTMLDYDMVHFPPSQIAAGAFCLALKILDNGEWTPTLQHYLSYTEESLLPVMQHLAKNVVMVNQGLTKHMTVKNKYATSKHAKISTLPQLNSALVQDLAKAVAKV
Experimental: as §1, §2, §3, §4

human cyclin E-CDK2 = human cyclin E-CDK2 (Homo sapiens, UniProt P24941); assay: FlashPlate kinase assay, IC50 measurement, cyclin E-CDK2; format: biochemical
Experimental: To determine inhibition of Cdk4, Cdk2 and Cdk1 activity, kinase assays were conducted using FlashPlate™ assays (NEN™-Life Science Products). FlashPlate assays were performed using recombinant human cyclin B-CDK1, human cyclin E-CDK2 or human cyclin D1-CDK4 complexes. GST-cyclinE (GST-cycE), CDK2, GST-cyclinB (GST-cycB), CDK1, GST-CDK4 and cyclin D1 (cycD1) cDNA clones in baculovirus vectors were provided by Dr. W. Harper at the Baylor College of Medicine, Houston, Tex.
as §2, §3
[formula] where “test compound” refers to the average counts per minute of the test duplicates, “nonspecific” refers to the average counts per minute when no CyclinD/Cdk4, etc., was added, and “total” refers to the average counts per minute when no compound was added. […] B: Ki Measurement

HCT116 cells = assay: Tetrazolium dye proliferation assay (MTT assay); format: cell-based; settings: Homo sapiens, HCT-116; 90% inhibition of cell proliferation, HCT116 colorectal carcinoma cell line
Experimental: The cell line used was HCT116, a colorectal carcinoma cell line obtained from the American Type Cell Culture Collection (ATCC; Rockville, Md.). The cells were grown in McCoy's 5A medium supplemented with 10% FCS and L-glutamine.
Cells were plated at the appropriate seeding density to give logarithmic growth over the course of the assay in a 96-well tissue culture plate. Plates were incubated overnight at 37° C. in a humidified incubator with 5% CO2. The next day, test compounds were serially diluted to four times the final concentration in the appropriate medium containing 1.2% DMSO. One-fourth final volume of each dilution was added in duplicate to the plates containing cells. The same volume of 1.2% DMSO in medium was added to a row of “control wells” such that the final concentration of DMSO in each well was 0.3%. Wells to which no cells were added served as the “blank.” Wells to which no inhibitor was added served as “no inhibitor control.” The plates were) returned to the incubator, and at set time points (determined by their growth curves) plates were analyzed as described below.
3-(4,5-dimethylthiazole-2-yl)-2,5-diphenyl-2H-tetrazolium bromide (thiazolyl blue; MTT; Sigma) was added to each well to yield a final concentration of 1 mg/ml. Plates were returned to the incubator for 2.5–3 hours at 37° C. The MTT-containing medium was removed and the resulting formazan metabolite was solubilized in 100% ethanol with shaking for 15 minutes at room temperature. Absorbance readings were taken in a microtiter plate reader (Dynatech and Molecular Devices plate readers were used interchangeably) at a wavelength of 570 nm with a 650 nm reference. Percent inhibition (% INH) is calculated by subtracting the absorbance of the blank well from all wells, then subtracting the ratio of the average absorbance of each test duplicate (SAVE) by the average of the controls (CAVE) from 1.00. The final number is then multiplied by 100(% INH=(1.00−SAVE/CAVE)×100).

[1] = Rb protein substrate, 1 μM ATP, read-out: CDK2 IC50
[2] = Rb protein substrate, 1 μM ATP, unit inferred, read-out: CDK2 IC50

Sequence of human cyclin D1-CDK4 (P11802 whole entry): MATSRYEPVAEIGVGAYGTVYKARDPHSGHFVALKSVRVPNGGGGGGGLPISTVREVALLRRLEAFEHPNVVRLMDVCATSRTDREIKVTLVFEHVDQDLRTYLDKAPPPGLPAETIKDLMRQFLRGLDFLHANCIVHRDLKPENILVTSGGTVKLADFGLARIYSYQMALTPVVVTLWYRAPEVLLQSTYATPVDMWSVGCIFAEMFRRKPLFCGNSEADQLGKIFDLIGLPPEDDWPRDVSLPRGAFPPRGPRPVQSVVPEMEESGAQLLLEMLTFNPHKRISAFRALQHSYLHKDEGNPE
Sequence of human cyclin D1-CDK4 (P24385 whole entry partner): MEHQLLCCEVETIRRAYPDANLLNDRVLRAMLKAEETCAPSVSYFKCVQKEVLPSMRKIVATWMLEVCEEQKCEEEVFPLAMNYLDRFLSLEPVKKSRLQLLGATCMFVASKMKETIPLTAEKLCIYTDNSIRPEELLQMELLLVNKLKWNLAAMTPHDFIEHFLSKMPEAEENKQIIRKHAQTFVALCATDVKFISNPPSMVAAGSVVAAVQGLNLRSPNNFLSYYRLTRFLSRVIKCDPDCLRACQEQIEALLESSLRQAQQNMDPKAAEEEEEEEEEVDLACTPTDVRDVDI

| SMILES | melting point | IC50 (human cyclin D1-CDK4) [nM] | IC50 (human cyclin B-CDK1) [nM] | IC90 (HCT116 cells) [nM] | also measured |
| --- | --- | --- | --- | --- | --- |
| COc1ccccc1C(=O)c1cnc(Nc2ccc(N3CCN(C(C)C)CC3)cc2)nc1N [Example 8, [4-Amino-2-[4-(4-isopropyl-piperazin-1-yl)-phenylamino]-pyrimidin-5-yl]-(2-methoxy-phenyl)-methanone] | – | 171 | 3560 | 20900 | IC50 (human cyclin E-CDK2; [1]): 10000 nM |
| CCS(=O)(=O)c1ncc(C(=O)c2cc(F)ccc2OC)c(N)n1 [Example 48, (4-Amino-2-ethanesulfonyl-pyrimidin-5-yl)-(5-fluoro-2-methoxy-phenyl)-methanone] | 174 to 175 °C | – | – | – | – |
| COC(=O)N1CCCC(Nc2ncc(C(=O)c3ccccc3OC)c(N)n2)C1 (stereo not drawn) [Example 54, 3-[4-Amino-5-(2-methoxy-benzoyl)-pyrimidin-2-ylamino]-piperidine-1-carboxylic acid methyl ester] | – | 459 | 469 | 6440 | IC50 (human cyclin E-CDK2; [1]): 713 nM |
| CC[S+]([O-])c1ncc(C(=O)c2cc(F)ccc2OC)c(N)n1 (stereo not drawn) [Example 163, (4-Amino-2-ethanesulfinyl-pyrimidin-5-yl)-(5-fluoro-2-methoxy-phenyl)-methanone] | 150 to 152 °C | – | – | – | – |
| COc1ccc(F)cc1C(=O)c1cnc(NC2CCN(C(=O)OC(C)(C)C)CC2)nc1N [Example 164, 4-[4-Amino-5-(5-fluoro-2-methoxy-benzoyl)-pyrimidin-2-ylamino]-piperidine-1-carboxylic acid tert-butyl ester] | 122 to 124 °C (dec.) | – | – | – | – |
| COc1cc(F)c(F)c(F)c1C(=O)c1cnc(NC2CCN(C(C)=O)CC2)nc1N [Example 204, 1-[4-[4Amino-5-(2,3,4-trifluoro-6-methoxy-benzoyl)-pyrimidin-2-ylamino]-piperidin-1-yl]-ethanone] | – | 10 | 128 | 2400 | IC50 (human cyclin E-CDK2; [2]): 51 nM |
| COc1cc(F)c(F)c(F)c1C(=O)c1cnc(NC2CCN(S(C)(=O)=O)CC2)nc1N [Example 207, [4-Amino-2-(1-methanesulfonyl-piperidin-4-ylamino)-pyrimidin-5-y]-(2,3,4-trifluoro-6-methoxy-phenyl)-methanone] | – | 1 | 5 | 630 | IC50 (human cyclin E-CDK2): 2 nM |
| COc1ccc(F)c(F)c1C(=O)c1cnc(NC2CCN(S(=O)(=O)CCCN3CCN(C)CC3)CC2)nc1N [Example 228, (4-Amino-2-[1-[3-(4-methyl-piperazin-1-yl)-propan-1-sulfonyl]-piperidin-4-ylamino]-pyrimidin-5-yl)-(2,3-difluoro-6-methoxy-phenyl)-methanone] | – | 1 | 39 | 274 | IC50 (human cyclin E-CDK2; [2]): 17 nM |
| CS(=O)(=O)N1CCC(Nc2ncc(C(=O)c3ccccc3)c(N)n2)CC1 [Example 283, [4-Amino-2-(1-methanesulfonyl-piperidin-4-ylamino)-pyrimidin-5-yl]-phenyl-methanone] | 249 to 250 °C | – | – | – | – |
| COc1ccc(F)c(F)c1C(=O)c1cnc(N[C@H]2CC[C@H](NCCO)CC2)nc1N [Example 290, Trans-[4-Amino-2-[4-(2-hydroxy-ethylamino)-cyclohexylamino]-pyrimidin-5-yl}-(2,3-difluoro-6-methoxy-phenyl)-methanone] | – | 20 | 18 | 179 | IC50 (human cyclin E-CDK2; [1]): 5 nM |

The next lines start with results.

| melting point | IC50 (human cyclin D1-CDK4) [nM] | IC50 (human cyclin B-CDK1) [nM] | IC90 (HCT116 cells) [nM] | SMILES | also measured |
| --- | --- | --- | --- | --- | --- |
| 99 to 101 °C | – | – | – | COc1ccc(F)c(F)c1C(O)c1cnc(Cl)nc1Cl (racemic) [Example 287, rac-(2,4-Dichloro-pyrimidin-5-yl)-(2,3-difluoro-6-methoxy-phenyl)-methanol] | – |
| 263 °C (dec.) | – | – | – | COc1ccc(F)c(F)c1C(=O)c1cnc(NC2CCN(C=O)CC2)nc1N [Example 284, 4-[4-Amino-5-(2,3-difluoro-6-methoxy-benzoyl)-pyrimidin-2-ylamino]-piperidine-1-carbaldehyde] | – |
| 217 to 218 °C | – | – | – | COc1ccc(F)c(F)c1C(=O)c1cnc(NC2CCN(S(N)(=O)=O)CC2)nc1N [Example 285, 4-[4-Amino-5-(2,3-difluoro-6-methoxy-benzoyl)-pyrimidin-2-ylamino]-piperidine-1-sulfonic acid amide] | – |
| 153 °C (dec.) | – | – | – | COc1ccc(F)c(F)c1C(=O)c1cnc(NC2CCN(S(=O)(=O)NC(C)=O)CC2)nc1N [Example 286, 4-[4-Amino-5-(2,3-difluoro-6-methoxy-benzoyl)-pyrimidin-2-ylamino]-piperidine-1-sulfonic acid acetyl-amide] | – |
| 137 to 139 °C | – | – | – | COc1ccc(F)c(F)c1C(=O)c1cnc(Cl)nc1Cl [Example 288, (2,4-Dichloro-pyrimidin-5-yl)-(2,3-difluoro-6-methoxy-phenyl)-methanone] | – |
| 238 to 239 °C (dec.) | – | – | – | COc1ccc(F)c(F)c1C(=O)c1cnc(Cl)nc1N [Example 289, (4-Amino-2-chloro-pyrimidin-5-yl)-(2,3-difluoro-6-methoxy-phenyl)-methanone] | – |
| – | 15 | 8 | 374 | COc1ccc(F)c(F)c1C(=O)c1cnc(N[C@H]2CC[C@H](NS(=O)(=O)CCCN3CCOCC3)CC2)nc1N [Example 294, Trans-3-Morpholin-4-yl-propane-1-sulfonic acid [4-[4-amino-5-(2,3-difluoro-6-methoxy-benzoyl)-pyrimidin-2-ylamino]-cyclohexyl]-amide] | IC50 (human cyclin E-CDK2; [1]): 5 nM |
| – | 5 | 28 | 320 | COc1ccc(F)c(F)c1C(=O)c1cnc(N[C@H]2CC[C@H](N3CCCS3(=O)=O)CC2)nc1N [Example 298, Trans-[4-Amino-2-[4-(1,1-dioxo-1λ^6-isothiazolidin-2-yl)-cyclohexylamino]-pyrimidin-5-yl]-(2,3-difluoro-6-methoxy-phenyl)-methanone] | IC50 (human cyclin E-CDK2; [1]): 8 nM |
